Experiment [1] concerns the target T1, human serotonin 2C receptor (h-5-HT2C) (Homo sapiens (Human), UniProt P28335). As to the kind of experiment: 5-HT2C receptor agonistic action assay (FLIPR Calcium 4 Assay kit, h-5-HT2C/CHO cells). Type of experiment: cell-based. Particulars: test material 10 μmol/L; 100% = 10 μmol/L 5-HT, −100% = 10 μmol/L SB206553; below 0% = inverse agonistic action. The protocol:
3-1. The Cells and Inoculation Thereof
In the experiment, human serotonin 2C receptor (h-5-HT2C) was expressed in CHO cells (h-5-HT2C/CHO). The cells were incubated with UltraCHO Lipuid (trademark) (manufactured by BioWhitakker) containing 1% FBS, 400 μg/mL Geneticin, 100 U/mL penicillin—100 μg/mL streptomycin (all manufactured by Sigma Aldrich) and 250 μg/mL Zeosin (manufactured by InvivoGen) in an incubator containing 5% CO2. On the day before using the cells, they were detached and collected using 250 μg/mL Trypsin solution (manufactured by Nacalai Tesque), then inoculated in a 96 well flat clear bottom black polystyrene TC-treated microplates (manufactured by Corning) at 40000 cells/well/60 μL in an incubator containing 5% CO2 for 16 hours to 24 hours.
3-2. 5-HT2C Receptor Agonistic Action Assay
The 5-HT2C receptor agonistic action was evaluated with FLIPR Calcium 4 Assay kit (manufactured by Molecular Devices). In specific, to the cells inoculated in the plate were added Component A of FLIPR Calcium 4 Assay kit dissolved in 100 mL of HHBP buffer (1×Hanks buffer, 20 mmol/L HEPES, both manufactured by Gibco) at an amount of 40 μL/well, and the cells were incubated in an incubator containing 5% CO2 for 1 hour. Then, the cells were set in FLIPR TETRA (trademark) (manufactured by Molecular Devices), to the cells was added the test material diluted with HHBP buffer, 2.5 mmol/L Probenecid (manufactured by Sigma) (concentration after dilution: 10 μmol/L) at an amount of 20 μL/well, and the fluorescence was measured. Then, in order to evaluate the antagonistic action of the test material, 20 μL/well of 5-HT solution (manufactured by Sigma, final concentration: 0.1 nmol/L) was further added to the cells, and the fluorescence was measured.
The 5-HT2C receptor agonistic action of each test material was calculated as a rate of fluorescence enhancement wherein 100% was defined as a value when the cells were given 10 μmol/L 5-HT. Furthermore, the 5-HT2C receptor inverse agonistic action was calculated as a rate of fluorescence decay wherein −100% was defined as a value when the cells were given 10 μmol/L SB206553 (manufactured by Sigma Aldrich). A lower value of the 5-HT2C receptor agonistic action of the test material means that the material has a higher antagonistic action. In particular, when the value of the 5-HT2C receptor agonistic action of the test material is below 0%, the material has an inverse agonistic action for 5-HT2C receptor.

The target of experiment [2] is T1, human serotonin 2C receptor (h-5-HT2C). As to the kind of experiment: [3H] mesulergine binding assay to evaluate affinity for human 5-HT2C receptor. The following applies: h-5-HT2C/CHO membrane preparation, read-out: Test Ex. 2: 5-HT2C receptor binding inhibition constant Ki. The procedure: Mesulergine Binding Assay to Evaluate Affinity for Human 5-HT2C Receptor
(§1) Preparation of the Cells and Membrane Preparations
In the experiment, human serotonin 2C receptor (h-5-HT2C) was expressed in CHO cells (h-5-HT2C/CHO). The cells were incubated with UltraCHO Lipuid (trademark) (manufactured by BioWhitakker) containing 1% FBS, 400 μg/mL Geneticin, 100 U/mL penicillin—100 μg/mL streptomycin (all manufactured by Sigma Aldrich) and 250 μg/mL Zeosin (manufactured by InvivoGen) in an incubator containing 5% CO2; detached and collected using 50 mmol/L Tris-HCl (pH=7.4); homogenized with a homogenizer manufactured by Teflon (trademark); and then centrifuged (48,000×g, 25 min, 4° C.). The precipitate was suspended again in the appropriate amount of 50 mmol/L Tris-HCl (to give a membrane preparation), and stored at −80° C. until used. The amount of protein in the membrane preparation was assayed by Dye Reagent Concentrate (manufactured by BIO-RAD) using bovine serum albumin (manufactured by Sigma Aldrich) as a standard.
2-2. 5-HT2C Receptor Binding Assay
A solution of 200 μL in total was prepared by mixing 50 μL of [^3H] mesulergine (manufactured by GE Healthcare) diluted with 50 mmol/L Tris-HCl (pH=7.4) (final concentration: about 2 nmol/L), 149 μL of the h-5-HT2C/CHO membrane preparation (protein amount: 20 μg/well), and 1 μL of the test drug dissolved in dimethylsulfoxide. The solution was reacted at 37° C. for 30 minutes, and then quickly suction-filtered under reduced pressure through a glass fiber filter coated with 1% aq. bovine serum albumin. The glass fiber filter was washed twice with 250 μL of 50 mmol/L Tris-HCl (pH=7.4), placed in a plastic vial containing 4 mL of liquid scintillator (ACS-II, manufactured by Amersham) or Ecoscint A (manufactured by National Diagnostics), and the remaining radioactivity on the filter paper was assayed with a liquid scintillation counter. The non-specific binding of [^3H] mesulergine was defined as a binding amount in the presence of 10 μmol/L SB206553 (manufactured by Sigma Aldrich). The IC50 value was calculated according to Hill analysis, and the binding inhibition constant (Ki) was calculated according to the following formula: Binding inhibition constant (Ki)=IC50/(1+S/Kd) wherein S is a concentration of the added [^3H] mesulergine, and Kd is a binding dissociation constant of [^3H] mesulergine which was calculated from a saturated binding assay using the same cell membrane.

The target in experiment [3] is human serotonin transporter (h-SERT) (Homo sapiens (Human), UniProt P31645). As to the kind of experiment: [3H] citalopram binding assay to evaluate human serotonin reuptake inhibitory action (h-SERT binding assay). The procedure:
Citalopram Binding Assay to Evaluate Human Serotonin Reuptake Inhibitory Action
as §1
In the experiment, human serotonin transporter (h-SERT) was expressed in CHO cells (h-SERT/CHO). The cells were incubated with F12 containing 10% FCS, 500 μg/mL Geneticin and 100 U/mL penicillin—100 μg/mL streptmycin (all manufactured by Sigma Aldrich) in an incubator containing 5% CO2; detached and collected using a SERT buffer [50 mmol/L Tris-HCl comprising 120 mmol/L NaCl and 5 mmol/L KCl (pH=7.4)]; homogenized with a homogenizer manufactured by Teflon (trademark); and then centrifuged (50,000×g, 30 min, 4° C.). The precipitate was suspended again in the appropriate amount of SERT buffer (to give a membrane preparation), and stored at −80° C. until used. The amount of protein in the membrane preparation was assayed by Dye Reagent Concentrate (manufactured by BIO-RAD) using bovine serum albumin (manufactured by Sigma Aldrich) as a standard.
1-2. h-SERT Binding Assay
The [^3H] citalopram binding was measured according to the method disclosed in Owens M. J. et al., J. Pharm. […] The solution was reacted at room temperature for 60 minutes, and then quickly suction-filtered under reduced pressure through a glass fiber filter coated with 0.05% aq. polyethyleneimine. The glass fiber filter was washed twice with […] of the SERT buffer, placed in a plastic vial containing 4 mL of liquid scintillator (ACS-II, manufactured by Amersham) or Ecoscint A (manufactured by National Diagnostics), and the remaining radioactivity on the filter paper was assayed with a liquid scintillation counter.

Setting [4] is: [3H] citalopram binding, read-out: Test Ex. 1: h-SERT binding inhibition constant Ki.

Structures can show the parent of a compound that is named as a salt. Where two headings read alike, the source gives them in different places.

T1 sequence (P28335 whole entry, looked up): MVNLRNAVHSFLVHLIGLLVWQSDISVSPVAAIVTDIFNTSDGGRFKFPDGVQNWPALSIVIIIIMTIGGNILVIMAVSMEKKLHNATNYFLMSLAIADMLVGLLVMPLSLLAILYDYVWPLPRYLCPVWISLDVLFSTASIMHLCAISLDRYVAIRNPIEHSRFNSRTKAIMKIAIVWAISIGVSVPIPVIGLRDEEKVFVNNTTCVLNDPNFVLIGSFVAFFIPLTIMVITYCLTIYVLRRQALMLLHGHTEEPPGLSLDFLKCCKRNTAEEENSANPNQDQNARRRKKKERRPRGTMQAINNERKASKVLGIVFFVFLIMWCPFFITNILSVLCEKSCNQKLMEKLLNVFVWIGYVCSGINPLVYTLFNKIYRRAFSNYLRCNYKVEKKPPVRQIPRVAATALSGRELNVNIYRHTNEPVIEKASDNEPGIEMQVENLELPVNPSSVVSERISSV

Take `CNCc1cc(OCc2cc(Cl)ccc2F)n(CC2CCCCO2)n1.Cl` (single isomer, unassigned; (+)) [Example 475, (+)-1-{5-[(5-chloro-2-fluorobenzyl)oxy]-1-(tetrahydro-2H-pyran-2-ylmethyl)-1H-pyrazol-3-yl}-N-methylmethanamine]: in experiment [1], the “Test Ex. 3: 5-HT2C receptor agonistic action” value was −95%.

As a reminder, the Ki is the dissociation constant of the complex between target and ligand, obtained from inhibition or displacement. In the case of `CNCc1cc(OCc2ccccc2)n(Cc2ccccc2)n1` [Example 1, 1-[1-Benzyl-5-(benzyloxy)-1H-pyrazol-3-yl]-N-methylmethanamine hydrochloride], the Ki in experiment [2] is 26 nM; in experiment [3] (setting [4]), 4.9 nM.

For `CNCc1cc(OCc2ccc(F)cc2C)n(CC2CCCCC2)n1` [Example 31, 1-{1-(Cyclohexylmethyl)-5-[(4-fluoro-2-methylbenzyl)oxy]-1H-pyrazol-3-yl}-N-methylmethanamine], the Ki was 5.2 nM in experiment [2] and 0.92 nM in experiment [3] (setting [4]).

On to `CNCc1cc(OCc2ccc(F)cc2)n(CC2CCCC2)n1` [Example 137, 1-{1-(cyclopentylmethyl)-5-[(4-fluorobenzyl)oxy]-1H-pyrazol-3-yl}-N-methylmethanamine], for which the Ki in experiment [2] was 7.9 nM; in experiment [3] (setting [4]), 6.6 nM.

Take `CNCc1cc(OCc2cc(F)ccc2F)n(CC2CCCC2)n1` [Example 147, 1-{1-(cyclopentylmethyl)-5-[(2,5-difluorobenzyl)oxy]-1H-pyrazol-3-yl}-N-methylmethanamine]: the values for the Ki in experiment [2] and in experiment [3] (setting [4]) were 4.8 nM and 0.71 nM, respectively.

As for `CNCc1cc(OCc2cc(Cl)ccc2F)n(CC2CCCC2)n1` [Example 148, 1-{5-[(5-chloro-2-fluorobenzyl)oxy]-1-(cyclopentylmethyl)-1H-pyrazol-3-yl}-N-methylmethanamine], the Ki in experiment [2] was 1.9 nM; in experiment [3] (setting [4]) it was 4.6 nM.

As to `CNCc1cc(OCc2ccccc2)n(CCC2CCCC2)n1` [Example 192, 1-[5-(Benzyloxy)-1-(2-cyclopentylethyl)-1H-pyrazol-3-yl]-N-methylmethanamine], the results for the Ki in experiment [2] and in experiment [3] (setting [4]) were 3.9 nM and 0.91 nM, respectively.

Regarding `CNCc1cc(OCc2cc(F)ccc2F)n(Cc2ccc(F)cc2)n1` [Example 219, 1-{5-[(2,5-difluorobenzyl)oxy]-1-(4-fluorobenzyl)-1H-pyrazol-3-yl}-N-methylmethanamine], the Ki in experiment [2] amounted to 10 nM; in experiment [3] (setting [4]), 1.6 nM.

For `CNCc1cc(OCc2cc(F)ccc2F)n(Cc2ccc(C)cc2)n1` [Example 230, 1-{5-[(2,5-difluorobenzyl)oxy]-1-(4-methylbenzyl)-1H-pyrazol-3-yl}-N-methylmethanamine], the Ki in experiment [2] was found to be 4.9 nM; in experiment [3] (setting [4]), 2.3 nM.

Consider `CNCc1cc(OCc2cc(F)c(F)cc2F)n(CC2CCCC2)n1` [Example 280, 1-{1-(cyclopentylmethyl)-5-[(2,4,5-trifluorobenzyl)-oxy]-1H-pyrazol-3-yl}-N-methylmethanamine], for which the Ki amounted to 9.7 nM in experiment [2] and 1.9 nM in experiment [3] (setting [4]).

Take `CNCc1cc(OCc2cc(F)c(F)cc2F)n(CCC(C)(C)C)n1` [Example 284, 1-{1-(3,3-dimethylbutyl)-5-[(2,4,5-trifluorobenzyl)-oxy]-1H-pyrazol-3-yl}-N-methylmethanamine]: the Ki was 7.9 nM in experiment [2] and 5.7 nM in experiment [3] (setting [4]).

As for `CNCc1cc(OCc2cc(F)c(F)cc2F)n(Cc2ccc(C)cc2)n1` [Example 286, N-methyl-1-{1-(4-methylbenzyl)-5-[(2,4,5-trifluoro-benzyl)oxy]-1H-pyrazol-3-yl}methanamine], the Ki worked out at 6.6 nM in experiment [2] and 5.5 nM in experiment [3] (setting [4]).

In the case of `Fc1ccc(F)c(COc2cc(CNC3CC3)nn2CC2CCCCC2)c1` [Example 342, N-({1-(Cyclohexylmethyl)-5-[(2,5-difluorobenzyl)oxy]-1H-pyrazol-3-yl}methyl)cyclopropanamine], the results for the Ki in experiment [2] and in experiment [3] (setting [4]) were 14 nM and 8.5 nM, respectively.

Consider `CNCc1nn(CC2CCCCC2)c(OCc2cc(F)ccc2F)c1F.Cl` [Example 351, 1-{1-(Cyclohexylmethyl)-5-[(2,5-difluorobenzyl)oxy]-4-fluoro-1H-pyrazol-3-yl}-N-methylmethanamine hydrochloride], for which the inhibition constant Ki came to 43 nM in experiment [2] and 0.98 nM in experiment [3].

Regarding `CNCc1cc(OCc2ccccc2F)n(CCC(C)C)n1` [Example 381, 1-{5-[(2-fluorobenzyl)oxy]-1-(3-methylbutyl)-1H-pyrazol-3-yl}-N-methylmethanamine], the Ki in experiment [2] worked out at 10 nM; in experiment [3] (setting [4]) it was 3.4 nM.

For `CNCc1cc(OCc2ccc(F)cc2)n(CC2(C(F)(F)F)CCCC2)n1` [Example 446, 1-(5-[(4-fluorobenzyl)oxy]-1-{[1-(trifluoromethyl)-cyclopentyl]methyl}-1H-pyrazol-3-yl)-N-methylmethanamine], the Ki in experiment [2] was determined as 19 nM; in experiment [3] (setting [4]), 7.4 nM.

Regarding `CNCc1cc(OCc2cc(F)ccc2F)n(CC2(C(F)(F)F)CCCC2)n1` [Example 447, 1-(5-[(2,5-difluorobenzyl)oxy]-1-{[1-(trifluoro-methyl)cyclopentyl]methyl}-1H-pyrazol-3-yl)-N-methylmethanamine], the Ki in experiment [2] amounted to 13 nM; in experiment [3] (setting [4]), 0.5 nM.

Turning to `CNCc1cc(OCc2cc(Cl)ccc2F)n(CC2(C(F)(F)F)CCCC2)n1` [Example 448, 1-(5-[(5-chloro-2-fluorobenzyl)oxy]-1-{[1-(trifluoro-methyl)cyclopentyl]methyl}-1H-pyrazol-3-yl)-N-methylmethanamine], the figures for the Ki in experiment [2] and in experiment [3] (setting [4]) were 8.8 nM and 3.8 nM, respectively.
